Tested on: activated sludge
Experiment: Activated sludge SBR reactor, biological nitrogen removal with added AHLs signal molecule
Conditions: remaining steps as Example 1 (10° C.)

| Structure (SMILES) | ammonia-nitrogen removal efficiency (10 μg/L after addition) [%] | ammonia-nitrogen removal efficiency (100 μg/L after addition) [%] |
| --- | --- | --- |
| CCCCCC(=O)N[C@H]1CCOC1=O [C6-HSL, N-hexanoyl-L-homoserine lactone] | 82.34 | 84.29 |
| CCCCCCCC(=O)N[C@H]1CCOC1=O [C8-HSL, N-octanoyl-L-homoserine lactone] | 88.37 | 94.54 |
